From publication PMC6199744, “Development of Chemical Proteomics for the Folateome and Analysis of the Kinetoplastid Folateome” (ACS Infectious Diseases, 2018)
Where two headings read alike, the source gives them in different places.

What was measured:
Assay type in all cases: binding
[1] = molecular target: T1, HeLa cell extract proteins (Homo sapiens, UniProt P29692)
T1 construct: endogenous in cells; host or cells: HeLa cell extract
T1 sequence (P29692 1-281): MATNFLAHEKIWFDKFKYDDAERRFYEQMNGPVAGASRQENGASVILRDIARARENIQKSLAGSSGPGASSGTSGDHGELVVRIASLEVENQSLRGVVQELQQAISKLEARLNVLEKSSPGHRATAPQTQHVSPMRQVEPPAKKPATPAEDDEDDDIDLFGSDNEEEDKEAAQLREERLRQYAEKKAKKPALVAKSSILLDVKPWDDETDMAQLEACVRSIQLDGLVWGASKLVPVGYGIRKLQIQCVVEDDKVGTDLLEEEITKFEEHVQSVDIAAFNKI

[2] = molecular target: T2, HeLa cell extract proteins (Homo sapiens, UniProt Q8IUH3)
T2 construct: endogenous in cells; host or cells: HeLa cell extract
T2 sequence (Q8IUH3 1-476): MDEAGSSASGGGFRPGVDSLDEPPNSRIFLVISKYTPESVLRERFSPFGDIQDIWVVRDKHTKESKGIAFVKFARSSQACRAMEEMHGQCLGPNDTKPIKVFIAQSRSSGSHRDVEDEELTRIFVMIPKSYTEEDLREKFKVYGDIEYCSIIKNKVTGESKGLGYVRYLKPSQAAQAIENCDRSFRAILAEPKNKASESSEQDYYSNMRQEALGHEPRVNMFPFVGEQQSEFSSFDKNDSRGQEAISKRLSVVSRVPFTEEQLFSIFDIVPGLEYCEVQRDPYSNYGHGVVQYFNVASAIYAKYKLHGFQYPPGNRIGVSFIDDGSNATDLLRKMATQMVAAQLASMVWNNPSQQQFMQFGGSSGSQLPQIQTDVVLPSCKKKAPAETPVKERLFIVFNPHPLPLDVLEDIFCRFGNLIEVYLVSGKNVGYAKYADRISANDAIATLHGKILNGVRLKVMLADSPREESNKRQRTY

[3] = molecular target: T3, HeLa cell extract proteins (Homo sapiens, UniProt Q7RTS9)
T3 construct: endogenous in cells; host or cells: HeLa cell extract
T3 sequence (Q7RTS9 1-669): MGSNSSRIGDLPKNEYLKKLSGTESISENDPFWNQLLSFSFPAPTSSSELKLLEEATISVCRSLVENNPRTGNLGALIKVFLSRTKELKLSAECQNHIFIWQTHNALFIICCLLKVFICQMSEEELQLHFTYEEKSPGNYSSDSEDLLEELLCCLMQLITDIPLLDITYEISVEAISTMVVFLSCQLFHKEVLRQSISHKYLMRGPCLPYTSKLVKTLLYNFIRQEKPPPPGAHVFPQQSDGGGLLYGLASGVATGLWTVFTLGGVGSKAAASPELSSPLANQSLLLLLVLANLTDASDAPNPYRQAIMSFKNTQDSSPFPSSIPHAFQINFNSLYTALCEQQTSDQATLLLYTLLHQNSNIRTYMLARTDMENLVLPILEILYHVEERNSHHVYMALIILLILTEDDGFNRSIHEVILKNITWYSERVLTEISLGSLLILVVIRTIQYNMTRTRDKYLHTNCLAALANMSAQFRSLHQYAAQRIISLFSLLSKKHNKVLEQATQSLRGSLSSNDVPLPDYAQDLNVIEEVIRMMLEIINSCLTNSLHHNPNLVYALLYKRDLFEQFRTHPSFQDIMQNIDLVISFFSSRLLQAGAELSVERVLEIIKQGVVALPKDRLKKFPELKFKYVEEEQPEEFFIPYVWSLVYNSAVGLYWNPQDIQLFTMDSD

[4] = molecular target: T4, HeLa cell extract proteins (Homo sapiens, UniProt P02786)
T4 construct: endogenous in cells; host or cells: HeLa cell extract
T4 sequence (P02786 whole entry): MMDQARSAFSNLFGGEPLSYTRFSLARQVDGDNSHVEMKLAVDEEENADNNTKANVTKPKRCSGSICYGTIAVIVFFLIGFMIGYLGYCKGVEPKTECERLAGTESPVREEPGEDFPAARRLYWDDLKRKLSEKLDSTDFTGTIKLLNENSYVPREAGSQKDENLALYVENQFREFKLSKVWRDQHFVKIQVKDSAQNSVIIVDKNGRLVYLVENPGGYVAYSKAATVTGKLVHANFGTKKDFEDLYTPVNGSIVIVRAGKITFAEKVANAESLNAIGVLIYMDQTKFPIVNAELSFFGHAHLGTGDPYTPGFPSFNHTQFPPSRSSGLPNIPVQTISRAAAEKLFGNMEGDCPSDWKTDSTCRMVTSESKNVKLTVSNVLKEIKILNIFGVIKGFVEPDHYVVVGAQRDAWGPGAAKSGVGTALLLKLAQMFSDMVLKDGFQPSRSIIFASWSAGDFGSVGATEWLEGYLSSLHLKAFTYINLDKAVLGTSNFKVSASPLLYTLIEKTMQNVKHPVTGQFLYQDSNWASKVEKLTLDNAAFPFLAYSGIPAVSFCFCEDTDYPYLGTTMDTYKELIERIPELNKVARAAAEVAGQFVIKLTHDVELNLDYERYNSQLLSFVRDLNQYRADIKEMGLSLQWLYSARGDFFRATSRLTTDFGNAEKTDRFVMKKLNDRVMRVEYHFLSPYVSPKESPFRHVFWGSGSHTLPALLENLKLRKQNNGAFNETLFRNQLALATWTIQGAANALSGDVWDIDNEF

[5] = molecular target: T5, HeLa cell extract proteins (Homo sapiens, UniProt O75306)
T5 construct: endogenous in cells; host or cells: HeLa cell extract
T5 sequence (O75306 34-463): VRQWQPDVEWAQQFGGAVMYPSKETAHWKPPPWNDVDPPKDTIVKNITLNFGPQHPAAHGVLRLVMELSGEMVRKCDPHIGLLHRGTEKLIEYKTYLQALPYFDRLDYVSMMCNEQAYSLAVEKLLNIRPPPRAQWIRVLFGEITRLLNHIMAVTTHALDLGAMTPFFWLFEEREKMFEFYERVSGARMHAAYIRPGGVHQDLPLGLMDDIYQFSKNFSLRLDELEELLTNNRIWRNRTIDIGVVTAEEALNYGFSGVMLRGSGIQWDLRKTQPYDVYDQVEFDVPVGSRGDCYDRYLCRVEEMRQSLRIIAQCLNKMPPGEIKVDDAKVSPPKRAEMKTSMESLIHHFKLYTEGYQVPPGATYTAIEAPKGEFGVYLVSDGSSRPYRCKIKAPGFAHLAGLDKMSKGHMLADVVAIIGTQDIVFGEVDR

[6] = molecular target: T6, HeLa cell extract proteins (Homo sapiens, UniProt P23921)
T6 construct: endogenous in cells; host or cells: HeLa cell extract
T6 sequence (P23921 1-792): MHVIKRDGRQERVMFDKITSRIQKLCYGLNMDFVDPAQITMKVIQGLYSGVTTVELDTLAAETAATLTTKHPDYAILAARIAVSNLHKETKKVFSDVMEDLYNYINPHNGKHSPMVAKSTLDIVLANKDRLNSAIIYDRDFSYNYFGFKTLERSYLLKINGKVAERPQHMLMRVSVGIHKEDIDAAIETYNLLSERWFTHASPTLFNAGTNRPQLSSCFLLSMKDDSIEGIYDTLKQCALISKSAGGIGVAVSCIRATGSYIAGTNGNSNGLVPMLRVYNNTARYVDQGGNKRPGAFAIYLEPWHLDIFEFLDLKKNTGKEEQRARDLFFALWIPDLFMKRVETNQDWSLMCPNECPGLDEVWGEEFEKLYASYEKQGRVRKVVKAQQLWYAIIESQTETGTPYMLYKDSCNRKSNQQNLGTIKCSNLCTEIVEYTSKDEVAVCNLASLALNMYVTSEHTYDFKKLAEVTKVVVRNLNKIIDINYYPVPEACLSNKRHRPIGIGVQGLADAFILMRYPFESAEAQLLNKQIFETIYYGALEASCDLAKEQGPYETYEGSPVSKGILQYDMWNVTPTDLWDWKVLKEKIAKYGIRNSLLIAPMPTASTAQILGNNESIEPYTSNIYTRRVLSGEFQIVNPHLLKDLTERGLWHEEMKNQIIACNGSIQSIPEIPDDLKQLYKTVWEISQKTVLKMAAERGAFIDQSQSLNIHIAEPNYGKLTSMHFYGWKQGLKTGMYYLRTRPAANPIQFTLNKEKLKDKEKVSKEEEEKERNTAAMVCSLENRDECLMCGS

[7] = molecular target: T7, HeLa cell extract proteins (Homo sapiens, UniProt Q96P70)
T7 construct: endogenous in cells; host or cells: HeLa cell extract
T7 sequence (Q96P70 whole entry): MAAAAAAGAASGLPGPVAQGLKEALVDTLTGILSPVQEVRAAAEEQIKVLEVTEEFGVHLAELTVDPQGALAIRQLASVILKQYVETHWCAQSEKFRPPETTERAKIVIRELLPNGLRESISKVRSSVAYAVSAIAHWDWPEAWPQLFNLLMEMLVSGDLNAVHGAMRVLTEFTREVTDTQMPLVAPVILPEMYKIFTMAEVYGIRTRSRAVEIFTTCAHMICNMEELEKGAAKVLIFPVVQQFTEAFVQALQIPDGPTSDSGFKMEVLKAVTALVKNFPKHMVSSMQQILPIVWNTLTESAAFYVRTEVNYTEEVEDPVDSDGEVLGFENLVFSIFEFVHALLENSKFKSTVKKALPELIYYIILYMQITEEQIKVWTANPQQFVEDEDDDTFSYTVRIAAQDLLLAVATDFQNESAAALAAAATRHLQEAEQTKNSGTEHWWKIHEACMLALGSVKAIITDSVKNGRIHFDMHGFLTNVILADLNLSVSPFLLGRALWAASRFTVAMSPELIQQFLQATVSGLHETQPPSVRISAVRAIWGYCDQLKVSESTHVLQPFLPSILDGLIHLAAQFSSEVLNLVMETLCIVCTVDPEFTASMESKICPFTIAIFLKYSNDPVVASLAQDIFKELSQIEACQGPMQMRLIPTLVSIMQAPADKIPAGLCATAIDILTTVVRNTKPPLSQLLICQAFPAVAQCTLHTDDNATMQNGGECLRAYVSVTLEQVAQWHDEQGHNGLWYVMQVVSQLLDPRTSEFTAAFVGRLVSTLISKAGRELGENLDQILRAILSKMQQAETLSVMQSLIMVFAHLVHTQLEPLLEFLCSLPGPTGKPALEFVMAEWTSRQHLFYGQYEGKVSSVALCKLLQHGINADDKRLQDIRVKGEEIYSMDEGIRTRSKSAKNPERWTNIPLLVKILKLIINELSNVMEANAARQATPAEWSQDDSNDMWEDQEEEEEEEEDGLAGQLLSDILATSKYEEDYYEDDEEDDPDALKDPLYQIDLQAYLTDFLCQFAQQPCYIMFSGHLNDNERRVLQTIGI

[8] = molecular target: T8, HeLa cell extract proteins (Homo sapiens, UniProt Q15365)
T8 construct: endogenous in cells; host or cells: HeLa cell extract
T8 sequence (Q15365 whole entry): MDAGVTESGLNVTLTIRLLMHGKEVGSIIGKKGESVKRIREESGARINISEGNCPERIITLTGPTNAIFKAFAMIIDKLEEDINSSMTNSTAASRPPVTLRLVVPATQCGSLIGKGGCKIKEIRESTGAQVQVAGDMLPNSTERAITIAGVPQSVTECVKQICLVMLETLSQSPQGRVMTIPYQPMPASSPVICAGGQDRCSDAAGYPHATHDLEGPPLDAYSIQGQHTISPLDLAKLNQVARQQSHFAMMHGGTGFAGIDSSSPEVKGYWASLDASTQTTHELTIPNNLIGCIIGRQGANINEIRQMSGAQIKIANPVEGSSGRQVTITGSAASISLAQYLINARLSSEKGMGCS

[9] = HeLa, protein RBM45 (ISOFORM 1 OF DEVELOPMENTALLY-REGULATED RNA-BINDING PROTEIN 1)

SMILES | fold changes relative to vehicle control ([1]; protein EEF1D, HeLa) | fold changes relative to vehicle control [2, 9] | fold changes relative to vehicle control ([3]; HeLa, protein DYM) | fold changes relative to vehicle control ([4]; HeLa, protein TFRC) | fold changes relative to vehicle control ([5]; protein NDUFS2, HeLa) | fold changes relative to vehicle control ([6]; HeLa, protein RRM1) | fold changes relative to vehicle control ([7]; HeLa, protein IPO9) | fold changes relative to vehicle control ([8]; HeLa, protein PCBP1) | fold changes relative to vehicle control ([2]; HeLa, protein RBM45) | fold changes relative to vehicle control ([4]; protein TFRC, HeLa) | fold changes relative to vehicle control ([5]; HeLa, protein NDUFS2) | fold changes relative to vehicle control ([6]; protein RRM1, HeLa) | fold changes relative to vehicle control ([7]; captured protein IPO9, HeLa) | fold changes relative to vehicle control ([8]; protein PCBP1, HeLa) | further results
Nc1nc2c(c(=O)[nH]1)N(C=O)C(CNc1ccc(C(=O)N[C@@H](CCC(=O)O)C(=O)O)cc1)CN2 (some centres unmarked) [LEU, leucovorin] | 0.99 | 1.12 | 0.78 | 0.94 | 0.86 | 0.99 | 0.87 | 0.92 |  |  |  |  |  |  | 
Nc1nc2[nH]cc(CCc3ccc(C(=O)N[C@@H](CCC(=O)O)C(=O)O)cc3)c2c(=O)[nH]1 [PTX, pemetrexed] |  |  |  |  |  |  |  |  |  |  |  |  |  |  | fold changes relative to vehicle control [1]: 1.01; fold changes relative to vehicle control [2]: 1.04; fold changes relative to vehicle control [3]: 0.68; fold changes relative to vehicle control [4]: 1.01; fold changes relative to vehicle control [5]: 0.92; fold changes relative to vehicle control [6]: 1.05; fold changes relative to vehicle control [7]: 0.91; fold changes relative to vehicle control [8]: 0.88
CCCCCCOc1ccc(Cc2cnc(N)nc2N)cc1 [compound 1] | 1.26 |  | 0.89 |  |  |  |  |  | 1.06 | 1.26 | 1.15 | 1.05 | 0.89 | 1.02 | 
CCCCCCOc1cccc(Cc2cnc(N)nc2N)c1 [compound 2] | 1.8 |  | 1.27 |  |  |  |  |  | 0.99 | 1.96 | 1.12 | 1.29 | 1.14 | 1.08 | 
Nc1nc2cccc(-c3ccccc3)c2n1Cc1ccc(Cl)c(Cl)c1 [compound 3] | 1.1 |  | 0.88 |  |  |  |  |  | 0.96 | 0.99 | 1.3 | 0.89 | 1.07 | 0.94 | 
NCCOCCOCC(=O)Nc1nc2ncc(CNc3ccc(C(=O)NC(CCC(=O)O)C(=O)O)cc3)nc2c(=O)[nH]1 (centres unmarked) [compound 6] | 1.09 | 1 | 0.86 | 1.09 | 1.12 | 1.06 | 1 | 0.94 |  |  |  |  |  |  | 
NCCCNc1ccc(C(=O)NC(CCC(=O)O)C(=O)O)cc1 (centres unmarked) [compound 7] | 0.93 | 0.96 | 0.94 | 0.87 | 1.13 | 0.96 | 0.94 | 0.91 |  |  |  |  |  |  | 
